This note sets out measurements from ChEMBL document CHEMBL2029327, “Synthetic menthyl α/β-(1→6)-diglucopyranosides-induced cell death in human leukemia cells is dependent on caspases” (Bioorg Med Chem Lett, 2012).

Common to all, as to assay type: functional, cell-based
Experiment [1] has as its system U-937. The experiment in a line: Induction of apoptosis in human U937 cells assessed as increase in chromatin condensation at 10 uM after 24 hrs by Hoechst staining-based flow cytometric analysis. Background: Flow cytometry measures light scatter and fluorescence of single cells or particles in a stream.
The subject of experiment [2] is MOLT-3. Kind of experiment: Cytotoxicity against human MOLT3 cells assessed as reduction in cell number at 10 uM after 24 hrs by inverted phase-contrast microscopic analysis.
Experiment [3] deals with MOLT-3. Kind of experiment: Induction of apoptosis in human MOLT3 cells assessed as increase in chromatin condensation at 10 uM after 24 hrs by Hoechst staining-based flow cytometric analysis.
In experiment [4] the test system is MCF7. The experiment in a line: Cytotoxicity against human MCF7 cells after 72 hrs by MTT assay. Conditions: for IC50: MCF7, 72 h. (Tetrazolium assays rely on reduction of a dye to a coloured formazan, in cell work by metabolically active cells.)
For experiment [5], the system named is HL-60. Kind of experiment: Cytotoxicity against human HL60 cells after 72 hrs by MTT assay. Conditions: for IC50: HL-60, 72 h.
Experiment [6] relates to U-937. Kind of experiment: Induction of apoptosis in human U937 cells assessed as […] hydrolysis of chromatin at 10 uM after 24 hrs by agarose gel electrophoretic analysis.
Experiment [7] concerns HL-60. Kind of experiment: Induction of apoptosis in human HL60 cells assessed as increase in chromatin condensation at 10 uM after 24 hrs by Hoechst staining-based flow cytometric analysis.
Experiment [8] concerns U-937. Kind of experiment: Cytotoxicity against human U937 cells assessed as morphological changes at 10 uM after 24 hrs by inverted phase-contrast microscopic analysis.
Experiment [9] relates to MOLT-3. The experiment in a line: Cytotoxicity against human MOLT3 cells after 72 hrs by MTT assay. The note with it: for IC50: MOLT-3, 72 h.
The test system of experiment [10] is MOLT-3. The experiment in a line: Induction of apoptosis in human MOLT3 cells assessed as […] hydrolysis of chromatin at 10 uM after 24 hrs by agarose gel electrophoretic analysis.
For experiment [11], the system named is HL-60. Kind of experiment: Cytotoxicity against human HL60 cells assessed as morphological changes at 10 uM after 24 hrs by inverted phase-contrast microscopic analysis.
The test system of experiment [12] is MCF7. The experiment in a line: Cytotoxicity against human MCF7 cells assessed as morphological changes at 10 uM after 24 hrs by inverted phase-contrast microscopic analysis.
For experiment [13], the system named is HL-60. The experiment in a line: Induction of apoptosis in human HL60 cells assessed as […] hydrolysis of chromatin at 10 uM after 24 hrs by agarose gel electrophoretic analysis.
Experiment [14] deals with HL-60. Kind of experiment: Cytotoxicity against human HL60 cells assessed as reduction in cell number at 10 uM after 24 hrs by inverted phase-contrast microscopic analysis.
Experiment [15] has as its system U-937. The experiment in a line: Cytotoxicity against human U937 cells after 72 hrs by MTT assay. The note with it: for IC50: U-937, 72 h.
Experiment [16] relates to MOLT-3. Kind of experiment: Cytotoxicity against human MOLT3 cells assessed as morphological changes at 10 uM after 24 hrs by inverted phase-contrast microscopic analysis.
Experiment [17] concerns U-937. The experiment in a line: Cytotoxicity against human U937 cells assessed as reduction in cell number at 10 uM after 24 hrs by inverted phase-contrast microscopic analysis.

Calls of active or inactive are those of the source. The calls are words filed in the database; no cut-off is given here.

The IC50 is the midpoint of a concentration-inhibition curve. As for `CC(C)[C@@H]1CC[C@@H](C)C[C@H]1O[C@@H]1O[C@H](CO[C@@H]2O[C@H](COC(=O)c3ccc(Br)cc3)[C@@H](OC(=O)c3ccc(Br)cc3)[C@H](O)[C@H]2O)[C@@H](O)[C@H](O)[C@H]1O`, the result with U-937 [1], in the experiment on MOLT-3 [2], in the experiment on MOLT-3 [3], in the experiment on U-937 [6], in the experiment on HL-60 [7] and in the experiment on U-937 [8] was Active. Besides, the result with MOLT-3 [10], with HL-60 [11], with MCF7 [12], with HL-60 [13], in the experiment on HL-60 [14] and with MOLT-3 [16] was Active. For the same compound, in the experiment with U-937 [17], the result was Active. In addition, the Activity result in the experiment on MCF7 [4], in the experiment with HL-60 [5], in the experiment with MOLT-3 [9] and in the experiment on U-937 [15] was “Dose-dependent effect” each time. The IC50 in the experiment on MCF7 [4] came out at 12.9 µM; in the experiment on HL-60 [5], 7 µM; in the experiment with MOLT-3 [9], 11.4 µM; in the experiment on U-937 [15] it was 9.2 µM.

Turning to `CC(C)[C@@H]1CC[C@@H](C)C[C@H]1OC1O[C@H](CO[C@@H]2O[C@H](COC(=O)c3ccc(Br)cc3)[C@@H](OC(=O)c3ccc(Br)cc3)[C@H](O)[C@H]2O)[C@@H](O)[C@H](O)[C@H]1O` (single isomer, unassigned), the result in the experiment with U-937 [1], in the experiment with MOLT-3 [2], in the experiment on MOLT-3 [3], in the experiment with U-937 [6], in the experiment on HL-60 [7] and in the experiment with U-937 [8] was Active. Further, the result in the experiment on MOLT-3 [10], in the experiment with HL-60 [11], with MCF7 [12], in the experiment with HL-60 [13], in the experiment with HL-60 [14] and in the experiment on MOLT-3 [16] was Active. The outcome with U-937 [17] was Active. Further, the Activity entry with MCF7 [4], with HL-60 [5], in the experiment on MOLT-3 [9] and in the experiment on U-937 [15] was “Dose-dependent effect” each time. For the same compound, the half-maximal inhibitory concentration (IC50) was 12.1 µM with MCF7 [4], 7 µM in the experiment on HL-60 [5], 10.6 µM in the experiment on MOLT-3 [9] and 5.8 µM in the experiment with U-937 [15].
